This is an account of results in patent publication US12398158B2, “Fluorescent GTP analogues and use” (CISBIO BIOASSAYS, priority 2019, dated 2025).

The test system of assay [1] is Gαi protein. Briefly: TR-FRET (HTRF) binding test of GTP analog-donor / anti-Gαi antibody DSV36S-d2, HEK293 Delta Opioid membranes. To be noted: HEK293 membranes expressing Delta Opioid GPCR and Gαi, 1 μg per well; analog 1 nM; absence vs presence of GTPγS 100 μM. The source says: (§1) • membrane preparations of cells expressing GPCRs and the G-alpha-i protein (Gαi) were purchased from Perkin Elmer or Euroscreen. The table below lists the cell backgrounds and references of the different samples used:
(§2) • the DSV36 antibody was generated by Cisbio Bioassays and is available rom Cisbio Bioassays on request (under the reference DSV36S). The antibody was labeled with the fluorescent probe d2 (red acceptor) compatible for TR-FRET detection. The DSV36S antibody binds at the switch II of the Gαi protein. • the GTP and GTPγS nucleotides were purchased from Sigma Aldrich (respective catalog references G8877 and G8634). • the 384-well, low volume, white plates with a white background were purchased from Greiner Bio One (catalog reference 784075). • the non-hydrolyzable/slowly hydrolyzable GTP analogs labeled with donor fluorophores of lanthanide complex type were synthesized at Cisbio Bioassays. Methods Preparation of the Reagents
Except for other specific mention, all the reagents were diluted in 50 mM Tris HCl pH 7.4, 10 mM MgCl2, 0.1% BSA, 10 mM NaCl, buffer. The membranes were prepared 4× to distribute 1 or 10 μg/well (amount specified in the key of each figure). The GTPγS nucleotide (non-specific signal condition) was prepared 6.67× to obtain a final concentration in the wells of 100 μM. The anti-Gαi antibody DSV36S-d2 used for the detection was prepared 4× to target the final concentration in the wells of 10 nM. […]
(§3) The non-specific signal (background fluorescence noise) was measured with wells containing an excess of GTPγS (10 or 100 μM).
(§4) The plates were incubated at 21° C. for 20 h and then the HTRF signal was measured on the PHERAstar reader (BMG Labtech) with the following configuration: • Module: HTRF (Excitation 337 nm, Emission 665 nm and 620 nm) • Excitation: laser, 40 flashes or lamp, 100 flashes • Reading window: delays: 60 μs-Integration: […] Signal Processing
(§5) From the raw signals at 665 nm and 620 nm, the HTRF Ratio was calculated according to the following formula: HTRF Ratio=[(Signal at 665 nm)/(Signal at 620 nm)]×10 000 Test Format […]
(Time-resolved FRET reads energy transfer from a long-lived donor to a nearby acceptor.)

The subject of assay [2] is Gαi protein. Put plainly: TR-FRET (HTRF) binding test of GTP analog-donor / anti-Gαi antibody DSV36S-d2, CHO-K1 Delta Opioid membranes.
Source text: as §1, §2
Except for other specific mention, all the reagents were diluted in 50 mM Tris HCl pH 7.4, 10 mM MgCl2, 0.1% BSA, 10 mM NaCl, buffer. The membranes were prepared 4× to distribute 1 or 10 μg/well (amount specified in the key of each figure). The GTPγS nucleotide (non-specific signal condition) was prepared 6.67× to obtain a final concentration in the wells of 100 μM. The anti-Gαi antibody DSV36S-d2 used for the detection was prepared 4× to target the final concentration in the wells of 10 nM. The non-hydrolyzable/slowly hydrolyzable GTP analogs labeled with fluorescent donor probes (lanthanide complexes) were prepared 4× to target the final concentrations in the wells mentioned in the keys of each figure.
• Membranes expressing GPCR and the G protein: 5 μl • GTPγS buffer or nucleotide (for the non-specific signal condition): 3 μl • Non-hydrolyzable/slowly hydrolyzable GTP analog-donor: 5 μl • Anti-Gαi antibody-acceptor (DSV36S-d2): 5 μl • Buffer: 2 μl
as §3, §4
From the raw signals at 665 nm and 620 nm, the HTRF Ratio was calculated according to the following formula: HTRF Ratio=[(Signal at 665 nm)/(Signal at 620 nm)]×10 000 Test Format
FIG. 2 illustrates the test format used to detect the binding of the compounds of formula (I) to the G protein. […] When the two FRET partners (test compound and anti-Gα protein antibody) bind to the same Gα protein, a FRET signal appears (left part of the figure: “Total Signal”) and is distinguished from the non-specific signal (background noise corresponding to the right part of the figure: “Non-Specific Signal”), which comprises a large excess of unlabeled GTPγS (displacement of the fluorescent GTP analog). […]
GTPgN-octyl-C2 was used at a final concentration of 6 nM in the wells. The membranes were incubated in the absence or in the presence of a large excess of GTPγS (100 μM). […]
GTPgN-octyl-C2 was used at a final concentration of 2 or 6 nM in the wells. The membranes were incubated in the absence or in the presence of a large excess of GTPγS (100 μM).

In assay [3] the test system is Gαi protein. Put plainly: TR-FRET (HTRF) binding test of GTP analog-donor / anti-Gαi antibody DSV36S-d2, CHO-K1 Dopamine D2S membranes. To be noted: CHO-K1 membranes expressing Dopamine D2S GPCR and Gαi, 10 μg per well; analog 6 nM; absence vs presence of GTPγS 100 μM.
Source text: as §1
• the DSV36 antibody was generated by Cisbio Bioassays and is available rom Cisbio Bioassays on request (under the reference DSV36S). The antibody was labeled with the fluorescent probe d2 (red acceptor) compatible for TR-FRET detection. […]
as §3, §4, §5

The mark [4] stands for this setting: CHO-K1 membranes expressing Delta Opioid GPCR and Gαi, 10 μg per well, analog 6 nM, absence vs presence of GTPγS 100 μM.

In the case of `Nc1nc2c(ncn2[C@@H]2O[C@H](COP(=O)(O)OP(=O)(O)OP(=O)(O)NCCCCCCCCNc3nc(Cl)nc(Nc4ccc(-c5cc(-c6cccc(CN(CC(=O)O)CC(=O)O)n6)nc(-c6cccc(CN(CC(=O)O)CC(=O)O)n6)c5)cc4)n3)C(O)[C@@H]2O)c(=O)[nH]1` (some centres unmarked) [GTPgN-octyl-C3, GTP-gamma-N-octyl-C3], the “HTRF Ratio total signal/non-specific signal” value in the assay on Gαi protein [1] worked out at 1.4.
With `Nc1nc2c(ncn2[C@@H]2O[C@H](COP(=O)(O)OP(=O)(O)OP(=O)(O)Nc3ccc(-c4cc(-c5cccc(CN(CC(=O)O)CC(=O)O)n5)nc(-c5cccc(CN(CC(=O)O)CC(=O)O)n5)c4)cc3)C(O)[C@@H]2O)c(=O)[nH]1` (some centres unmarked) [GTPgN—C3, GTP-gamma-N—C3], the “HTRF Ratio total signal/non-specific signal” value in the assay on Gαi protein [1] is 1.7.
With GTP-gamma-N-octyl-C2 [GTPgN-octyl-C2], the “signal amplitude (S/N), effect of amount of membrane” value with Gαi protein [2] (CHO-K1 Delta Opioid membranes increased from 1 to 10 μg per well, FIG. 11A) was “increase in the signal amplitude (S/N) is observed”. In the assay on Gαi protein [2] (CHO-K1 Delta Opioid membranes, GTPgN-octyl-C2 increased from 2 to 6 nM, FIG. 11B), the “amplitude of the signal (S/N), effect of analog concentration” value is on record as “increase in the amplitude of the signal (S/N) is observed”. For the same compound, the “HTRF Ratio total signal/non-specific signal” value is reported as 12.4 in the assay on Gαi protein [2] (setting [4]) and 3.8 in the assay with Gαi protein [3].
With GTP-gamma-N-octyl-C11 [GTPgN-octyl-C11], the “HTRF Ratio total signal/non-specific signal” value in the assay with Gαi protein [2] (setting [4]) is listed as 7.6.
Regarding “GTP-gamma-N-octyl-thiosuccinimidyl-C2 [GTPgN-octyl-thiosuccinimidyl-C2]”, the “HTRF Ratio total signal/non-specific signal” value with Gαi protein [2] (CHO-K1 Delta Opioid membranes 10 μg per well, analog 7.5 nM, buffer 60 mM MgCl2, 150 mM NaCl, presence vs absence of membrane preparation) is listed as 2.8.
Turning to GTP-gamma-N—C2 [GTPgN—C2], the “HTRF Ratio total signal/non-specific signal” value with Gαi protein [2] (setting [4]) was determined as 16.6.
Take GTP-gamma-O-hexyl-C2 [GTPgO-hexyl-C2]: in the assay on Gαi protein [2] (setting [4]), the “HTRF Ratio total signal/non-specific signal” value is 7.1.
For the compound GTP-gamma-O-hexyl-C3 [GTPgO-hexyl-C3], the “HTRF Ratio total signal/non-specific signal” value in the assay with Gαi protein [1] was 1.3.
